From patent US9179668B2, “Use of glycerol ethers as activators of the biological effects of a herbicide, fungicide or insecticide substance” (FONDS DE DEVELOPPEMENT DES FILIERES DES OLEAGINEUX ET …, priority 2009, dated 2015)

How the values were obtained:
Sitobion avenae = experiment: Spraying of insecticide solution on 25 aphids in a Petri dish; degree of mortality; assay type: in vivo; conditions: read-out: degree of mortality
Description: The aphids of the species Sitobion avenae used in the following examples were supplied by the Université de Picardie d'Amiens [University of Picardy of Amiens], laboratoire de biologie des plantes et contrôle des insectes ravageurs [Plant Biology and Insect Pest Control Laboratory], EA3900, 33, rue Saint Leu, Amiens 80000.
25 aphids of the species Sitobion avenae were introduced into a Petri dish into which the test solution was sprayed: • in dish 1, 1.8 g of a solution comprising 39.0 mg/l of diflubenzuron were sprayed; • in dish 2, 1.8 g of a solution comprising 39.0 mg/l of diflubezuron and 47.0 mg/l of 3-isopropyloxypropane-1,2-diol were sprayed.

Lucilia caesar = experiment: Spraying of insecticide solution on 30 flies in a cage; degree of mortality; assay type: in vivo; conditions: 1.8 g of solution; for degree of mortality: diflubenzuron 39.0 mg/l + glycerol ether 47.0 mg/l (cage 2)
Description: 30 flies of the species Lucilia caesar were introduced into each of the cages made with a cubic frame from lengths of wood and mosquito screens. One of the faces was pierced with a hole through which a sprayer for the test solution is introduced: • in cage 1, 1.8 g of a solution comprising 39.0 mg/l of diflubenzuron were sprayed • in cage 2, 1.8 g of a solution comprising 39.0 mg/l of diflubenzuron and 47.0 mg/l of 3-isopropyloxypropane-1,2-diol were sprayed.

Candida albicans = Candida albicans on agar in a Petri dish with impregnated blotting paper disks; inhibition regions observed; assay type: cell-based
Description: In the following examples, the Candida albicans test strain used is sold under the reference ATCC 10231, Collection Institut Pasteur.
A Candida albicans strain was inoculated on agar in a Petri dish. Disks of blotting paper impregnated with the following solutions were subsequently deposited at its surface:
• disk 1 is impregnated with a solution comprising […] • disk 2 is impregnated with a solution comprising 0.5 g/l of mancozeb • disk 3 is impregnated with a solution comprising 0.2 g/l of mancozeb • disk 4 is impregnated with a solution comprising 0.2 g/l of mancozeb and 0.1 g/l of 3-butyloxypropane-1,2-diol.

herbaceous plants = experiment: Spraying of herbicide solutions on 50×50 cm plots of land with herbaceous plants; deterioration of the vegetation observed; assay type: in vivo
Description: The following tests were carried out on plots of land of 50×50 cm on which herbaceous plants occur. Each of the solutions tested is sprayed over a plot which is assigned to it.
The time necessary for the complete destruction of the vegetation was compared, on similar plots planted with herbaceous plants, with a herbicide alone, on the one hand, and the same herbicide to which has been added a glycerol ether: 3-methyloxypropane-1,2-diol, on the other hand.
A solution comprising 6 g/l of glyphosate (in the acid form) was sprayed over plot 1 in a proportion of 36 grams to the m^2.
A solution comprising […] and 0.9 g/l of 3-methyl-oxypropane-1,2-diol was sprayed over plot 2 in a proportion of 36 grams to the m^2.
The following sprayings were carried out on 4 plots covered with herbaceous plants: • Plot 1: glyphosate at 6 g/l (36 g of the solution to the m^2) • Plot 2: glyphosate at 4.5 g/l (36 g of the solution to the m^2) • Plot 3: a solution of glyphosate at 1.5 g/l 3-pentyloxypropane-1,2-diol at 0.9 g/l, in a proportion of 36 g of the solution to the m^2. • Plot 4: a solution of glyphosate at […] 3-pentyloxypropane-1,2-diol at 0.9 g/l, in a proportion of 36 g of the solution to the m^2.

[1] = glyphosate 1.5 g/l + glycerol ether 0.9 g/l, 36 g of solution per m^2
[2] = glyphosate 3 g/l + glycerol ether 0.9 g/l, 36 g of solution per m^2
[3] = glyphosate 6 g/l + glycerol ether 0.9 g/l, 36 g of solution per m^2 (plot 2)
[4] = glyphosate 6 g/l alone, 36 g of solution per m^2 (plot 1)

| Compound | state of plot after 30 days (herbaceous plants; [1]) | state of plot after 30 days (herbaceous plants; [2]) | time after which deterioration began (herbaceous plants; [3]) | time after which deterioration was complete (herbaceous plants; [3]) | further results |
| --- | --- | --- | --- | --- | --- |
| O=C(NC(=O)c1c(F)cccc1F)Nc1ccc(Cl)cc1 [diflubenzuron, reference compound] | – | – | – | – | mortality at 39 µg/mL (Sitobion avenae): 21%; mortality at 39 µg/mL (Lucilia caesar; Lucilia caesar, diflubenzuron 39.0 mg/l alone (cage 1)): 29% |
| CCCCOCC(O)CO (centres unmarked) [3-butyloxypropane-1,2-diol] | unaffected | completely deteriorated | 3 days | 10 days | inhibition region of growth around the disk (Candida albicans; mancozeb 0.2 g/l + glycerol ether 0.1 g/l (disk 4)): circular regions of inhibition of the growth |
| CCCCCCCCCCOCC(O)CO (centres unmarked) [3-decyloxypropane-1,2-diol] | – | – | 4 days | 11 days | – |
| CCCCC(CC)COCC(O)CO (centres unmarked) [3-(2-ethylhexyloxy)propane-1,2-diol] | unaffected | completely deteriorated | 3 days | 11 days | inhibition region of growth around the disk (Candida albicans; mancozeb 0.2 g/l + glycerol ether 0.05 g/l (disk 4)): circular regions of inhibition of the growth; degree of mortality (Lucilia caesar): 56% |
| CCCCCOCC(O)CO (centres unmarked) [3-pentyloxypropane-1,2-diol] | completely deteriorated | – | 3 days | 10 days | inhibition region of growth around the disk (Candida albicans; mancozeb 0.2 g/l + glycerol ether 0.25 g/l (disk 4)): circular regions of inhibition of the growth; state of plot after 30 days (herbaceous plants; glyphosate 0.75 + glycerol ether 0.9 g/l, 36 g of solution per m^2): unaffected |
| CC(C)OCC(O)CO (centres unmarked) [3-isopropyloxypropane-1,2-diol] | unaffected | completely deteriorated | 3 days | 12 days | degree of mortality (Lucilia caesar): 64% |
| CCOCC(O)CO (centres unmarked) [3-ethyloxypropane-1,2-diol] | – | – | 3 days | 11 days | – |
| COCC(O)COC [1,3-dimethyloxypropan-2-ol] | – | – | 4 days | 15 days | – |
| CCCCCCOCC(O)CO (centres unmarked) [3-hexyloxypropane-1,2-diol] | unaffected | completely deteriorated | 3 days | 10 days | – |
| Cc1nc(N(C)C)nc(OC(=O)N(C)C)c1C [pirimicarb] | – | – | – | – | mortality at 78.1 µg/mL (Sitobion avenae): 16% |
| mancozeb [reference compound] | – | – | – | – | inhibition region of growth around the disk (Candida albicans; mancozeb 0.2 g/l alone (disk 3)): absence was observed of an inhibition region; inhibition region of growth around the disk (Candida albicans; mancozeb 0.5 g/l alone (disk 2)): absence was observed of an inhibition region; inhibition region of growth around the disk (Candida albicans; mancozeb 0.8 g/l alone (disk 1)): circular regions of inhibition of the growth |
| CC(C)CCCCCCOCC(O)CO (centres unmarked) [3-isononyloxypropane-1,2-diol] | unaffected | completely deteriorated | – | – | – |
| O=C(O)CNCP(=O)(O)O [glyphosate, reference compound] | – | – | – | – | state of plot after 30 days (herbaceous plants; glyphosate 4.5 g/l alone, 36 g of solution per m^2 (plot 2)): unaffected; state of plot after 30 days (herbaceous plants; [4]): completely deteriorated; time after which deterioration began (herbaceous plants; [4]): 8 days; time after which deterioration was complete (herbaceous plants; [4]): 18 days |
| COCC(O)CO (centres unmarked) [3-methyloxypropane-1,2-diol] | – | – | 4 days | 13 days | – |
| CCOCC(O)COCC [1,3-diethyloxypropan-2-ol] | – | – | 4 days | 13 days | – |
